According to US9155752B2, “Liver function-improving agent” (UENO FINE CHEMICALS INDUSTRY, LTD., priority 2012, dated 2015):
“Also recorded” adds a separate entry of the source.

Test system: NASH mice
Test: F4/80 immunostaining of liver, inflammation area % (Test Example 3)
Type: in vivo
Details: for Inflammation area % (F4/80 immunostaining), mean ± standard deviation: 8 weeks of age; for Inflammation area %, Significant difference: Bonferroni, 5% level, tendency at 10% level
Source text: A solid diet CE-2 (lipid 4.6% by weight, manufactured by CLEA Japan, Inc.) was used as a normal diet. A solid diet, High Fat Diet 32 (lipid 32.0% by weight, sucrose 6.75% by weight, manufactured by CLEA Japan, Inc.), was used as a sucrose-containing high fat diet. As a maltitol-containing high-fat diet, a special diet (lipid 32.0% by weight, maltitol 6.08% by weight; manufactured by CLEA Japan, Inc.) obtained by replacing the total amount (6.75% by weight) of sucrose in a solid diet, High Fat Diet 32, with powdered maltitol (Whole Crystalline Maltitol Ueno 60M (purity of maltitol: 90%), manufactured by Ueno Fine Chemicals Industry Ltd.) was used. Sodium hypochlorite (PURELOX-S, manufactured by OYALOX Co., Ltd.) was added to pure water prepared by Elix-UV pure water producing apparatus, to a final concentration of 0.00009%, so that pure water for use in the test was obtained. An aqueous maltitol solution was prepared by dissolving powdered maltitol (Whole Crystalline Maltitol Ueno 60M (purity of maltitol: 90%), manufactured by Ueno Fine Chemicals Industry Ltd.) in pure water to a concentration of 1.8% (weight/volume). The purity of maltitol in the aqueous maltitol solution was 1.62%. Twenty-one female SPF mice (C57BL/6J, produced by CLEA Japan, Inc.) on day 14 of pregnancy were purchased and acclimation was performed. All animals were allowed to make a natural birth and a born male was used to produce a model. In addition, the weaning was at 4 weeks after birth. Streptozotocin (Sigma-Aldrich Japan K.K.) was adjusted to a concentration of 10 mg/mL with a physiological saline solution (manufactured by Otsuka Pharmaceutical Factory, Inc.) and the solution was subcutaneously administered once to the back of 2-day-old male mice at a dose of 20 μL/mouse (200 μg/mouse). Afterwards, the mother animal took care of the baby until weaning. The weaning was on day 28±2 after birth. After the weaning, a normal diet was supplied ad libitum to animals receiving no streptozotocin (normal mice (group S1 and group 1)), and a sucrose-containing high fat diet was supplied ad libitum to animals receiving streptozotocin (NASH mice (group S2, group 2, group 3, and group 4). A normal diet was supplied ad libitum to normal mice (group 1). With respect to NASH mice, a sucrose-containing high fat diet was supplied ad libitum to the sucrose group (group 2), and a maltitol-containing high fat diet was supplied ad libitum to the maltitol-low dose group (group 3) and the maltitol-high dose group (group 4). An aqueous maltitol solution was supplied ad libitum only to the maltitol-high dose group (group 4) of 5 to 8 weeks of age, and pure water was supplied ad libitum to the groups other than group 4 of 5 to 8 weeks of age. Six male animals per group were assigned to groups S1 and S2, reared up to 5 weeks of age, and then necropsied. Eight male animals per group were assigned to groups 1, 2, 3 and 4, reared up to 8 weeks of age, and then necropsied. At scheduled necropsy of the animals of 5 or 8 weeks of age, all individuals were anesthetized with diethyl ether (manufactured by Sigma-Aldrich Japan K.K.) and a needle through which heparin sodium (Novo Heparin Injection 1000, manufactured by Mochida Pharmaceutical Co., Ltd.) had been passed was punctured to the heart to aspirate the whole blood, leading to euthanasia, followed by harvest of the organ. […]

Row | Structure (SMILES) | Inflammation area % (F4/80 immunostaining), mean ± standard deviation (Group 2, sucrose group: HFD32 (sucrose 6.75%) + pure water) | Inflammation area %, Significant difference (Group 3 (low-dose maltitol) vs sucrose group (group 2)) | Inflammation area % (F4/80 immunostaining), mean ± standard deviation (Group 3, low-dose maltitol: HFD32-M (maltitol 6.08%) + pure water) | Inflammation area %, Significant difference (Group 4 (high-dose maltitol) vs sucrose group (group 2)) | Inflammation area % (F4/80 immunostaining), mean ± standard deviation (Group 4, high-dose maltitol: HFD32-M (maltitol 6.08%) + aqueous maltitol solution 1.62%)
1 | OC[C@H]1O[C@@](CO)(O[C@H]2O[C@H](CO)[C@@H](O)[C@H](O)[C@H]2O)[C@@H](O)[C@@H]1O [sucrose, reference compound] | 3.28 ± 0.95% | – | – | – | –
2 | OC[C@@H](O)[C@@H](O[C@H]1O[C@H](CO)[C@@H](O)[C@H](O)[C@H]1O)[C@H](O)[C@@H](O)CO [maltitol] | – | No significant difference and No | 3.04 ± 1.55% | tendency to be low; also recorded: Tendency to be different | 2.46 ± 0.44%
